Assay results published in the supplement of paper PMC10307832.

Tests used:
Test in all cases: relative viability (nuclei count vs DMSO), 5 days (fraction); higher = more cells survive
A-427 = tested on: A-427
In short: (§1)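 One day after seeding in 1536-well plates, lung cancer cell lines were dosed by pin tool. Dosing was either single-drug or a fixed anchor-drug dose plus five library-drug doses (not always all listed) in √10 steps. After 5 days, nuclei were stained in one fix-and-stain step and counted on 4× images, and relative viability is the nuclei count of treated wells over that of vehicle wells, given as the median of duplicate plates.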

BEN = tested on: BEN
In short: as §1

EKVX = tested on: EKVX
In short: as §1

LC-2-ad = tested on: LC-2-ad
In short: as §1

LCLC-97TM1 = tested on: LCLC-97TM1
In short: as §1

LOU-NH91 = tested on: LOU-NH91
In short: as §1

LU99A = tested on: LU99A
In short: as §1

NCI-H1355 = tested on: NCI-H1355
In short: as §1

NCI-H1650 = tested on: NCI-H1650
In short: as §1

NCI-H1666 = tested on: NCI-H1666
In short: as §1

NCI-H1793 = tested on: NCI-H1793
In short: as §1

NCI-H1915 = tested on: NCI-H1915
In short: as §1

NCI-H1993 = tested on: NCI-H1993
In short: as §1

NCI-H2228 = tested on: NCI-H2228
In short: as §1

NCI-H2347 = tested on: NCI-H2347
In short: as §1

NCI-H23 = tested on: NCI-H23
In short: as §1

NCI-H460 = tested on: NCI-H460
In short: as §1

NCI-H520 = tested on: NCI-H520
In short: as §1

NCI-H650 = tested on: NCI-H650
In short: as §1

NCI-H838 = tested on: NCI-H838
In short: as §1

PC-3 [JPC-3] = tested on: PC-3 [JPC-3]
In short: as §1

RERF-LC-KJ = tested on: RERF-LC-KJ
In short: as §1

SW 1573 = tested on: SW 1573
In short: as §1

Work on `O=C(O)CCCCC(CCSCc1ccccc1)SCc1ccccc1` (centres undefined) [CPI-613] + CS(=O)(=O)N1CCN(Cc2cc3nc(-c4cccc5[nH]ncc45)nc(N4CCOCC4)c3s2)CC1 [Pictilisib] (partner 1 µM) yielded a relative viability (A-427; first compound 5 µM) of 0.742, a relative viability (A-427; first compound 15.81 µM) of 0.696 and a relative viability (A-427; first compound 50 µM) of 0.66. The relative viability (A-427; first compound 158.11 µM) was 0.613, the relative viability (A-427; first compound 500 µM) was 0.737 and the relative viability (BEN; first compound 5 µM) was 0.527. It also gave a relative viability (BEN; first compound 15.81 µM) of 0.423, a relative viability (BEN; first compound 50 µM) of 0.503 and a relative viability (BEN; first compound 158.11 µM) of 0.452. It also gave a relative viability (BEN; first compound 500 µM) of 0.495, a relative viability (EKVX; first compound 5 µM) of 0.43 and a relative viability (EKVX; first compound 15.81 µM) of 0.451. It also gave a relative viability (EKVX; first compound 50 µM) of 0.509, a relative viability (EKVX; first compound 158.11 µM) of 0.415 and a relative viability (EKVX; first compound 500 µM) of 0.406. It also gave a relative viability (LC-2-ad; first compound 5 µM) of 0.455, a relative viability (LC-2-ad; first compound 15.81 µM) of 0.427 and a relative viability (LC-2-ad; first compound 50 µM) of 0.473. For the same compound, the relative viability (LC-2-ad; first compound 158.11 µM) was 0.211, the relative viability (LC-2-ad; first compound 500 µM) was 0.0075 and the relative viability (LCLC-97TM1; first compound 5 µM) was 0.191. For the same compound, the relative viability (LCLC-97TM1; first compound 15.81 µM) was 0.164, the relative viability (LCLC-97TM1; first compound 50 µM) was 0.174 and the relative viability (LCLC-97TM1; first compound 158.11 µM) was 0.192. It also gave a relative viability (LCLC-97TM1; first compound 500 µM) of 0.0531, a relative viability (LOU-NH91; first compound 5 µM) of 0.499 and a relative viability (LOU-NH91; first compound 15.81 µM) of 0.519. It also gave a relative viability (LOU-NH91; first compound 50 µM) of 0.541, a relative viability (LOU-NH91; first compound 158.11 µM) of 0.532 and a relative viability (LOU-NH91; first compound 500 µM) of 0.511. For the same compound, the relative viability (LU99A; first compound 5 µM) was 0.289, the relative viability (LU99A; first compound 15.81 µM) was 0.322 and the relative viability (LU99A; first compound 50 µM) was 0.339. The relative viability (LU99A; first compound 158.11 µM) was 0.256, the relative viability (LU99A; first compound 500 µM) was 0.0798 and the relative viability (NCI-H1355; first compound 5 µM) was 0.417. For the same compound, the relative viability (NCI-H1355; first compound 15.81 µM) was 0.389, the relative viability (NCI-H1355; first compound 50 µM) was 0.374 and the relative viability (NCI-H1355; first compound 158.11 µM) was 0.29. It also gave a relative viability (NCI-H1355; first compound 500 µM) of 0.0921, a relative viability (NCI-H1650; first compound 5 µM) of 0.597 and a relative viability (NCI-H1650; first compound 15.81 µM) of 0.477. For the same compound, the relative viability (NCI-H1650; first compound 50 µM) was 0.638, the relative viability (NCI-H1650; first compound 158.11 µM) was 0.109 and the relative viability (NCI-H1650; first compound 500 µM) was 0.0271. It also gave a relative viability (NCI-H1666; first compound 5 µM) of 0.512, a relative viability (NCI-H1666; first compound 15.81 µM) of 0.351 and a relative viability (NCI-H1666; first compound 50 µM) of 0.404. It also gave a relative viability (NCI-H1666; first compound 158.11 µM) of 0.15, a relative viability (NCI-H1666; first compound 500 µM) of 0.0576 and a relative viability (NCI-H1793; first compound 5 µM) of 0.248. It also gave a relative viability (NCI-H1793; first compound 50 µM) of 0.266, a relative viability (NCI-H1793; first compound 158.11 µM) of 0.205 and a relative viability (NCI-H1793; first compound 500 µM) of 0.0326. The relative viability (NCI-H1915; first compound 5 µM) was 0.988, the relative viability (NCI-H1915; first compound 15.81 µM) was 0.719 and the relative viability (NCI-H1915; first compound 50 µM) was 0.908. The relative viability (NCI-H1915; first compound 158.11 µM) was 0.927, the relative viability (NCI-H1915; first compound 500 µM) was 0.503 and the relative viability (NCI-H1993; first compound 5 µM) was 0.762. For the same compound, the relative viability (NCI-H1993; first compound 15.81 µM) was 0.698, the relative viability (NCI-H1993; first compound 50 µM) was 0.715 and the relative viability (NCI-H1993; first compound 158.11 µM) was 0.648. For the same compound, the relative viability (NCI-H1993; first compound 500 µM) was 0.496, the relative viability (NCI-H2228; first compound 5 µM) was 0.429 and the relative viability (NCI-H2228; first compound 15.81 µM) was 0.382. It also gave a relative viability (NCI-H2228; first compound 50 µM) of 0.596, a relative viability (NCI-H2228; first compound 158.11 µM) of 0.374 and a relative viability (NCI-H2228; first compound 500 µM) of 0.0181. For the same compound, the relative viability (NCI-H2347; first compound 5 µM) was 0.524, the relative viability (NCI-H2347; first compound 15.81 µM) was 0.397 and the relative viability (NCI-H2347; first compound 50 µM) was 0.705. The relative viability (NCI-H2347; first compound 158.11 µM) was 0.144, the relative viability (NCI-H2347; first compound 500 µM) was 0.171 and the relative viability (NCI-H23; first compound 5 µM) was 0.478. For the same compound, the relative viability (NCI-H23; first compound 15.81 µM) was 0.455, the relative viability (NCI-H23; first compound 50 µM) was 0.457 and the relative viability (NCI-H23; first compound 158.11 µM) was 0.153. It also gave a relative viability (NCI-H23; first compound 500 µM) of 0.009, a relative viability (NCI-H460; first compound 5 µM) of 0.353 and a relative viability (NCI-H460; first compound 15.81 µM) of 0.315. The relative viability (NCI-H460; first compound 50 µM) was 0.347, the relative viability (NCI-H460; first compound 158.11 µM) was 0.419 and the relative viability (NCI-H460; first compound 500 µM) was 0.342. It also gave a relative viability (NCI-H520; first compound 5 µM) of 0.271, a relative viability (NCI-H520; first compound 15.81 µM) of 0.279 and a relative viability (NCI-H520; first compound 50 µM) of 0.286. It also gave a relative viability (NCI-H520; first compound 158.11 µM) of 0.172, a relative viability (NCI-H520; first compound 500 µM) of 0.134 and a relative viability (NCI-H650; first compound 5 µM) of 0.805. For the same compound, the relative viability (NCI-H650; first compound 15.81 µM) was 0.861, the relative viability (NCI-H650; first compound 50 µM) was 0.855 and the relative viability (NCI-H650; first compound 158.11 µM) was 0.742. It also gave a relative viability (NCI-H650; first compound 500 µM) of 0.736, a relative viability (NCI-H838; first compound 5 µM) of 0.483 and a relative viability (NCI-H838; first compound 15.81 µM) of 0.289. For the same compound, the relative viability (NCI-H838; first compound 50 µM) was 0.392, the relative viability (NCI-H838; first compound 158.11 µM) was 0.299 and the relative viability (NCI-H838; first compound 500 µM) was 0.0565. The relative viability (PC-3 [JPC-3]; first compound 5 µM) was 0.683, the relative viability (PC-3 [JPC-3]; first compound 15.81 µM) was 0.617 and the relative viability (PC-3 [JPC-3]; first compound 50 µM) was 0.656. It also gave a relative viability (PC-3 [JPC-3]; first compound 158.11 µM) of 0.636, a relative viability (PC-3 [JPC-3]; first compound 500 µM) of 0.404 and a relative viability (RERF-LC-KJ; first compound 5 µM) of 0.455. It also gave a relative viability (RERF-LC-KJ; first compound 15.81 µM) of 0.496, a relative viability (RERF-LC-KJ; first compound 50 µM) of 0.605 and a relative viability (RERF-LC-KJ; first compound 158.11 µM) of 0.558. For the same compound, the relative viability (RERF-LC-KJ; first compound 500 µM) was 0.438, the relative viability (SW 1573; first compound 5 µM) was 0.532 and the relative viability (SW 1573; first compound 15.81 µM) was 0.452. It also gave a relative viability (SW 1573; first compound 50 µM) of 0.554, a relative viability (SW 1573; first compound 158.11 µM) of 0.46 and a relative viability (SW 1573; first compound 500 µM) of 0.481.
